Source: US20130029928A1 (priority 2010, published 2013)
Read-outs that look alike come from different tables or passages of the source.

Assay: Phase I study CXR1002-001: plasma pharmacokinetics (LC-MS/MS)
Assay type: in vivo, human
Details: human, plasma, oral, person, plasma; for concentration at 24 h: 24 hr (Day 2); for concentration at 168 h: 168 hr (Day 8); for concentration at 336 h: 336 hr (Day 15); for concentration at 360 h: 360 hr (Day 16); for concentration at 504 h: 504 hr (Day 22); for concentration at 672 h: 672 hr (Day 29); for concentration at 696 h: 696 hr (Day 30); for concentration at 840 h: 840 hr (Day 36)
From the text: PK samples, PD (fasting) samples, blood glucose, and blood triglyceride samples, were taken over a 6-week period.
Dose limiting toxicity (DLT) will be based on the toxicity assessments over the first 3-week period of the repeat dosing schedule. PK samples (single blood sample) were taken on the following basis: • Every 6 weeks during the repeat dosing phase • If dosing is interrupted or stopped, samples will be taken at intervals according to patient convenience • PK sampling for safety evaluation may take place at any time, as clinically indicated
Plasma samples were collected after the single 50 mg dose at the following timepoints: Pre-dose, and then 0.25, 0.5, 0.75, 1, 1.5, 2, 3, 4, 6, 24, 48, and 72 hours after administration and then once weekly at weeks 2, 3, 4, 5, and 6 (days 8, 15, 22, 29, and 36). For patients treated with the weekly repeat dose, plasma samples were collected at the following timepoints: Pre-dose and then 2, 3, 4 and 24 hours after administration for a total of 6 weeks. Thereafter a single sample was collected every 6 weeks for monitoring of exposure during long term treatment. Plasma samples were processed at site and stored at −80° C. prior to batch shipment to the analytical laboratory.

[1] = 1000 mg, Patient 040, 1000 mg, read-out: Concentration
[2] = 1200 mg, Patient 033, 1200 mg, read-out: Concentration

Structure (SMILES): O=C(O)C(F)(F)C(F)(F)C(F)(F)C(F)(F)C(F)(F)C(F)(F)C(F)(F)F [CXR1002]
- concentration at 4 h [1]: 190 µM
- concentration at 24 h [1]: 148 µM
- concentration at 168 h [1]: 120 µM
- concentration at 170 h [1]: 368 µM
- concentration at 171 h [1]: 343 µM
- concentration at 172 h (1000 mg, Patient 040, 1000 mg, 172 hr, read-out: Concentration): 326 µM
- concentration at 192 h (1000 mg, Patient 040, 1000 mg, 192 hr (Day 9), read-out: Concentration): 272 µM
- concentration at 336 h [1]: 305 µM
- concentration at 338 h [1]: 487 µM
- concentration at 339 h [1]: 427 µM
- concentration at 340 h [1]: 476 µM
- concentration at 360 h [1]: 485 µM
- concentration at 504 h [1]: 353 µM
- concentration at 506 h [1]: 502 µM
- concentration at 507 h (1000 mg, Patient 040, 1000 mg, 507 hr, read-out: Concentration): 554 µM
- concentration at 508 h (1000 mg, Patient 040, 1000 mg, 508 hr, read-out: Concentration): 515 µM
- concentration at 528 h (1000 mg, Patient 040, 1000 mg, 528 hr (Day 23), read-out: Concentration): 525 µM
- concentration at 672 h [1]: 490 µM
- concentration at 674 h [1]: 558 µM
- concentration at 675 h [1]: 533 µM
- concentration at 676 h [1]: 607 µM
- concentration at 696 h [1]: 697 µM
- concentration at 840 h [1]: 574 µM
- concentration at 842 h [1]: 626 µM
- concentration at 843 h (1000 mg, Patient 040, 1000 mg, 843 hr, read-out: Concentration): 748 µM
- concentration at 864 h (1000 mg, Patient 040, 1000 mg, 864 hr (Day 37), read-out: Concentration): 826 µM
- concentration at 0 h (1200 mg, Patient 033, 1200 mg, 0 hr (pre-dose)): 0 nM
- concentration at 2 h (1200 mg, Patient 033, 1200 mg, 2 hr, read-out: Concentration): 441 µM
- concentration at 3 h (1200 mg, Patient 033, 1200 mg, 3 hr, read-out: Concentration): 396 µM
- concentration at 4 h [2]: 374 µM
- concentration at 24 h [2]: 371 µM
- concentration at 168 h [2]: 317 µM
- concentration at 170 h [2]: 735 µM
- concentration at 171 h [2]: 657 µM
- concentration at 172 hr (1200 mg, Patient 033, 1200 mg, 172 hr, read-out: Concentration): 637 µM
- concentration at 192 hr (1200 mg, Patient 033, 1200 mg, 192 hr (Day 9), read-out: Concentration): 591 µM
- concentration at 336 h [2]: 637 µM
- concentration at 338 h [2]: 926 µM
- concentration at 339 h [2]: 841 µM
- concentration at 340 h [2]: 817 µM
- concentration at 360 h [2]: 915 µM
- concentration at 504 h [2]: 713 µM
- concentration at 506 h [2]: 1150 µM
- concentration at 507 hr (1200 mg, Patient 033, 1200 mg, 507 hr, read-out: Concentration): 1060 µM
- concentration at 508 hr (1200 mg, Patient 033, 1200 mg, 508 hr, read-out: Concentration): 1010 µM
- concentration at 672 h [2]: 1020 µM
- concentration at 674 h [2]: 1230 µM
- concentration at 675 h [2]: 1110 µM
- concentration at 676 h [2]: 1100 µM
- concentration at 696 h [2]: 1110 µM
- concentration at 840 h [2]: 1040 µM
- concentration at 842 h [2]: 1110 µM
- concentration at 843 hr (1200 mg, Patient 033, 1200 mg, 843 hr, read-out: Concentration): 1230 µM
- concentration at 844 hr (1200 mg, Patient 033, 1200 mg, 844 hr, read-out: Concentration): 1200 µM
- concentration at 864 hr (1200 mg, Patient 033, 1200 mg, 864 hr (Day 37), read-out: Concentration): 1320 µM
- concentration at 2 hr (1200 mg, Patient 034, 1200 mg, 2 hr, read-out: Concentration): 440 µM
- concentration at 3 hr (1200 mg, Patient 034, 1200 mg, 3 hr, read-out: Concentration): 401 µM
